Activity calls are given as the source filed them. No cut-off for these calls is given here.
Assays:
[1] = Cytotoxicity against mouse BMMC assessed as cell viability after 3 days by XTT assay; conditions: 72 h
[2] = tested on: Mus musculus; assay: Inhibition of LPS-induced bone loss in ICR mouse assessed as restoration of number of osteoclasts in femurs at 10 mg/kg, po after 10 days; type: functional, organism-based
[3] = target: T1, Tumor necrosis factor ligand superfamily member 11 (Mus musculus) (UniProt O35235); assay: Inhibition of RANKL-mediated osteoclastogenesis in mouse BMMC assessed as reduction of cathepsin K mRNA expression at 100 uM after 12 to 48 hrs by RT-PCR analysis; type: functional
T1 sequence (whole entry): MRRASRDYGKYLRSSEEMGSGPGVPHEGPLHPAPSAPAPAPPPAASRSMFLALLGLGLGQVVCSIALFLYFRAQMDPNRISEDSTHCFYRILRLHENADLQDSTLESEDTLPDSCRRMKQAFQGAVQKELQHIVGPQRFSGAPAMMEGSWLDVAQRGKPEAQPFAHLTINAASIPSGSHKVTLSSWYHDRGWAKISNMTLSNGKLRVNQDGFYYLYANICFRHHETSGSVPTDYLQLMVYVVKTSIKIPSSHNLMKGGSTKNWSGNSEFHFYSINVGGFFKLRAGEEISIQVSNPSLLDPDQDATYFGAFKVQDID

[4] = tested on: Mus musculus; assay: Inhibition of ovariectomized-induced bone loss in C57BL/6 mouse assessed as restoration of bone loss in femurs at 10 mg/kg, po administered every other day for 28 days by hematoxylin and eosin staining; type: functional, organism-based
[5] = target: T1, Tumor necrosis factor ligand superfamily member 11 (Mus musculus); assay: Inhibition of RANKL-mediated osteoclast differentiation in mouse BMMC assessed as formation of TRAP-positive osteoclasts after 4 days; type: functional
[6] = tested on: Mus musculus; assay: Inhibition of LPS-induced bone loss in ICR mouse assessed as reduction of RANKL/OPG ratio in serum level at 10 mg/kg, po after 10 days by ELISA; type: functional, organism-based
[7] = target: Tyrosine-protein kinase SYK (Mus musculus) (UniProt P48025); assay: Inhibition of RANKL-mediated Syk phosphorylation in mouse BMMC at 100 uM after 1 hr by Western blot analysis
Sequence of Tyrosine-protein kinase SYK (Mus musculus) (P48025 whole entry, looked up): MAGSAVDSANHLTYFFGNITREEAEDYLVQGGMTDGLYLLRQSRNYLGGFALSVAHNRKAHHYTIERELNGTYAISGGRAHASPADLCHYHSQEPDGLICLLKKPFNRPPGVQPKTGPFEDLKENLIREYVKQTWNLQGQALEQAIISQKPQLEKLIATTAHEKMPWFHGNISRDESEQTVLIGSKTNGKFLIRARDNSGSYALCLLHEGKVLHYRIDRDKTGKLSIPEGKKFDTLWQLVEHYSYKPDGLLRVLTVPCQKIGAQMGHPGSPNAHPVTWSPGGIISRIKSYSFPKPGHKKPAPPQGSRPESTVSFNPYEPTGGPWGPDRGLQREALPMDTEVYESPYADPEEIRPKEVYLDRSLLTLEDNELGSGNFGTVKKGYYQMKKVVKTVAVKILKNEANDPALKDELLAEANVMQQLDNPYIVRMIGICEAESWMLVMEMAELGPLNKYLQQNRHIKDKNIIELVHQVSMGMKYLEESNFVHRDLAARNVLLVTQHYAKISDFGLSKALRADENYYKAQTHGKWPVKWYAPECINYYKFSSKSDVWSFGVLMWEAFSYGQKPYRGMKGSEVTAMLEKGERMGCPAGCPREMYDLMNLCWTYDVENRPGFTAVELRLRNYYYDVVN

[8] = target: T1, Tumor necrosis factor ligand superfamily member 11 (Mus musculus); assay: Inhibition of RANKL-mediated osteoclastogenesis in mouse BMMC assessed as reduction of beta3-integrin mRNA expression at 100 uM after 12 to 48 hrs by RT-PCR analysis; type: functional
[9] = tested on: Mus musculus; assay: Inhibition of ovariectomized-induced bone loss in C57BL/6 mouse assessed as restoration of Tb.N in femurs at 10 mg/kg, po administered every other day for 28 days by morphometric analysis; type: functional, organism-based
[10] = target: T1, Tumor necrosis factor ligand superfamily member 11 (Mus musculus); assay: Inhibition of RANKL-mediated osteoclastogenesis in mouse BMMC assessed as reduction of OSCAR mRNA expression at 100 uM after 12 to 48 hrs by RT-PCR analysis; type: functional
[11] = target: T2, 1-phosphatidylinositol 4,5-bisphosphate phosphodiesterase gamma-2 (Mus musculus) (UniProt Q8CIH5); assay: Inhibition of RANKL-mediated PLCgamma2 phosphorylation in mouse BMMC at 100 uM after 1 hr by Western blot analysis
T2 sequence (whole entry): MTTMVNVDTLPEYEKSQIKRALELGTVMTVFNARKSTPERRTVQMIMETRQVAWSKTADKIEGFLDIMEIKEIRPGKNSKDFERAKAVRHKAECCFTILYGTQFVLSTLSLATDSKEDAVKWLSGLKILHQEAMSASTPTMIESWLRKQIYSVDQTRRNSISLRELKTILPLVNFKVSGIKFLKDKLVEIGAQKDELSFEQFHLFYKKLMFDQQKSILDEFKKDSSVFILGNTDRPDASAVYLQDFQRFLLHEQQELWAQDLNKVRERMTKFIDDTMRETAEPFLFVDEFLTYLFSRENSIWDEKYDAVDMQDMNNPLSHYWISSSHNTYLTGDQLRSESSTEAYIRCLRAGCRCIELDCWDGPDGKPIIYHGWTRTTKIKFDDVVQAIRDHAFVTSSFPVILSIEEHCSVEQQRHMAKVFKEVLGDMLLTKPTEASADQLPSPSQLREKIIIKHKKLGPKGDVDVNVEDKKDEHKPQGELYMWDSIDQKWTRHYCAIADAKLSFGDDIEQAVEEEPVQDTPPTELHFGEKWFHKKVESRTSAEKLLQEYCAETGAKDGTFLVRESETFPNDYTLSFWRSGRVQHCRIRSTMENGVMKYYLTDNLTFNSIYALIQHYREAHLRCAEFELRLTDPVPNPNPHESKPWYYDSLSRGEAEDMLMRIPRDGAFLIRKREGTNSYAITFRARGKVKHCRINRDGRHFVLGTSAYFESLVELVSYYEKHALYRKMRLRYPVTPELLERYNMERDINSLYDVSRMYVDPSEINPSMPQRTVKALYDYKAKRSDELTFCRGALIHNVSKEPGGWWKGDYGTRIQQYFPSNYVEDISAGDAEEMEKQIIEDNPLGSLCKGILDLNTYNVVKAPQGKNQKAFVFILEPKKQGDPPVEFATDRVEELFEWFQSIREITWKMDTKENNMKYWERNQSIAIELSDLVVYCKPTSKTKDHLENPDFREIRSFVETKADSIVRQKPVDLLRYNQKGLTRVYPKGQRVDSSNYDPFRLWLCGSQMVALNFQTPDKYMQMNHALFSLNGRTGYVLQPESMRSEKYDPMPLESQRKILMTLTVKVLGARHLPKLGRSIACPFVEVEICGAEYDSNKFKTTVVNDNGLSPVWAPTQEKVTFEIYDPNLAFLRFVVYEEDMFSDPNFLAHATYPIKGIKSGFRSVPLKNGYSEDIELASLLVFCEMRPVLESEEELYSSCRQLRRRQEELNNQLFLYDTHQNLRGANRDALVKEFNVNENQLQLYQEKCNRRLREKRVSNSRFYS

[12] = target: T1, Tumor necrosis factor ligand superfamily member 11 (Mus musculus); assay: Inhibition of RANKL-mediated osteoclastogenesis in mouse BMMC assessed as reduction of CTR mRNA expression at 100 uM after 12 to 48 hrs by RT-PCR analysis; type: functional
[13] = tested on: Mus musculus; assay: Inhibition of LPS-induced bone loss in ICR mouse assessed as restoration of Tb.N in femurs at 10 mg/kg, po after 10 days by morphometric analysis; type: functional, organism-based
[14] = tested on: Mus musculus; assay: Inhibition of ovariectomized-induced bone loss in C57BL/6 mouse assessed as restoration of Tb.Sp in femurs at 10 mg/kg, po administered every other day for 28 days by morphometric analysis; type: functional, organism-based
[15] = target: T1, Tumor necrosis factor ligand superfamily member 11 (Mus musculus); assay: Inhibition of RANKL-mediated JNK phosphorylation in mouse BMMC at 100 uM after 1 hr by Western blot analysis
[16] = target: T1, Tumor necrosis factor ligand superfamily member 11 (Mus musculus); assay: Inhibition of RANKL-mediated osteoclastogenesis in mouse BMMC assessed as reduction of TRAP mRNA expression at 100 uM after 12 to 48 hrs by RT-PCR analysis; type: functional
[17] = target: T1, Tumor necrosis factor ligand superfamily member 11 (Mus musculus); assay: Inhibition of RANKL-mediated osteoclastogenesis in mouse BMMC assessed as reduction of amplitude and frequency of Ca2+ oscillations at 100 uM after 24 hrs by Fura-2/AM fluorescence assay; type: functional
[18] = target: T1, Tumor necrosis factor ligand superfamily member 11 (Mus musculus); assay: Inhibition of RANKL-mediated osteoclastogenesis in mouse BMMC assessed as reduction of DC-STAMP mRNA expression at 100 uM after 12 to 48 hrs by RT-PCR analysis; type: functional
[19] = tested on: Mus musculus; assay: Inhibition of LPS-induced bone loss in ICR mouse assessed as restoration of bone loss in femurs at 10 mg/kg, po after 10 days by hematoxylin and eosin staining; type: functional, organism-based
[20] = tested on: Mus musculus; assay: Inhibition of ovariectomized-induced bone loss in C57BL/6 mouse assessed as restoration of osteoclast formation in femurs at 10 mg/kg, po administered every other day for 28 days by hematoxylin and eosin staining; type: functional, organism-based
[21] = tested on: Osteoclast; assay: Inhibition of bone resorption in mouse mature osteoclasts after 24 hrs by light microscopic analysis; type: functional, cell-based
[22] = tested on: Mus musculus; assay: Inhibition of ovariectomized-induced bone loss in C57BL/6 mouse assessed as reduction of loss of bone mineral density at 10 mg/kg, po administered every other day for 28 days by micro-CT analysis; type: functional, organism-based
[23] = tested on: Mus musculus; assay: Inhibition of LPS-induced bone loss in ICR mouse assessed as reduction of CTX-I in serum at 10 mg/kg, po after 10 days by ELISA; type: functional, organism-based
[24] = target: T1, Tumor necrosis factor ligand superfamily member 11 (Mus musculus); assay: Inhibition of RANKL-mediated osteoclastogenesis in mouse BMMC assessed as reduction of c-Fos protein expression at 100 uM after 12 to 48 hrs by Western blot analysis; type: functional
[25] = tested on: Mus musculus; assay: Inhibition of LPS-induced bone loss in ICR mouse assessed as restoration of Tb.Th in femurs at 10 mg/kg, po after 10 days by morphometric analysis; type: functional, organism-based
[26] = tested on: Mus musculus; assay: Inhibition of ovariectomized-induced bone loss in C57BL/6 mouse assessed as restoration of BV/TV in femurs at 10 mg/kg, po administered every other day for 28 days by morphometric analysis; type: functional, organism-based
[27] = tested on: Mus musculus; assay: Inhibition of ovariectomized-induced bone loss in C57BL/6 mouse assessed as CTX-I level in serum at 10 mg/kg, po administered every other day for 28 days by ELISA; type: functional, organism-based
[28] = tested on: Mus musculus; assay: Inhibition of LPS-induced bone loss in ICR mouse assessed as prevention of loss in trabecular bone in femurs at 10 mg/kg, po after 10 days by micro-CT analysis; type: functional, organism-based; conditions: Trabecula
[29] = target: Tyrosine-protein kinase BTK (Mus musculus) (UniProt P35991); assay: Inhibition of RANKL-mediated Btk phosphorylation in mouse BMMC at 100 uM after 1 hr by Western blot analysis
Sequence of Tyrosine-protein kinase BTK (Mus musculus) (P35991 whole entry): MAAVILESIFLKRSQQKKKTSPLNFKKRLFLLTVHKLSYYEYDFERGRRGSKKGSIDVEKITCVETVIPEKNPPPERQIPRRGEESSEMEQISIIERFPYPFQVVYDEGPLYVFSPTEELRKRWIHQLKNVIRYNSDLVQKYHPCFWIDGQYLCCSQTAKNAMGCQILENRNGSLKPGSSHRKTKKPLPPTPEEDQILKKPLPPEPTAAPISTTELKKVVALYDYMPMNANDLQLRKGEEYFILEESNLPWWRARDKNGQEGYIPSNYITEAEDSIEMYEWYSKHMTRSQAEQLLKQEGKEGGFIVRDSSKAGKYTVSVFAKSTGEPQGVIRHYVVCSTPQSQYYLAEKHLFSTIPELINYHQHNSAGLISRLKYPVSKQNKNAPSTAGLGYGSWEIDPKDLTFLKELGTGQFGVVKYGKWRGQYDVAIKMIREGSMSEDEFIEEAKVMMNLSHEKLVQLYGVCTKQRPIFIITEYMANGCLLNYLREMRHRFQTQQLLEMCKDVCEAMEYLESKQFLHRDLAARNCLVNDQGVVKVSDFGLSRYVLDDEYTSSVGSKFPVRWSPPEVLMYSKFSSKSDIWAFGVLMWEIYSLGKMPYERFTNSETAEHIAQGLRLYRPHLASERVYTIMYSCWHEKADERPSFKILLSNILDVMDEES

[30] = target: T1, Tumor necrosis factor ligand superfamily member 11 (Mus musculus); assay: Inhibition of RANKL-mediated osteoclastogenesis in mouse BMMC assessed as reduction of NFATc1 protein expression at 100 uM after 12 to 48 hrs by Western blot analysis; type: functional
[31] = tested on: Mus musculus; assay: Inhibition of LPS-induced bone loss in ICR mouse assessed as restoration of BV/TV in femurs at 10 mg/kg, po after 10 days by morphometric analysis; type: functional, organism-based
[32] = target: T1, Tumor necrosis factor ligand superfamily member 11 (Mus musculus); assay: Inhibition of RANKL-mediated ERK phosphorylation in mouse BMMC at 100 uM after 1 hr by Western blot analysis
[33] = tested on: Mus musculus; assay: Inhibition of LPS-induced bone loss in ICR mouse assessed as restoration of Tb.Sp in femurs at 10 mg/kg, po after 10 days by morphometric analysis; type: functional, organism-based
[34] = target: T1, Tumor necrosis factor ligand superfamily member 11 (Mus musculus); assay: Inhibition of RANKL-mediated osteoclastogenesis in mouse BMMC assessed as reduction of c-Fos mRNA expression at 100 uM after 12 to 48 hrs by RT-PCR analysis; type: functional
[35] = target: T1, Tumor necrosis factor ligand superfamily member 11 (Mus musculus); assay: Inhibition of RANKL-mediated osteoclast differentiation in mouse BMMC assessed as disruption of F-actin ring formation after 3 days using phalloidin and DAPI staining; type: functional
[36] = target: T1, Tumor necrosis factor ligand superfamily member 11 (Mus musculus); assay: Inhibition of RANKL-mediated osteoclastogenesis in mouse BMMC assessed as reduction of NFATc1 mRNA expression at 100 uM after 12 to 48 hrs by RT-PCR analysis; type: functional
[37] = tested on: Mus musculus; assay: Inhibition of LPS-induced bone loss in ICR mouse assessed as restoration of osteoclast formation in femurs at 10 mg/kg, po after 10 days by hematoxylin and eosin staining; type: functional, organism-based
[38] = tested on: Mus musculus; assay: Inhibition of ovariectomized-induced bone loss in C57BL/6 mouse assessed as restoration number of osteoclasts in femurs at 10 mg/kg, po administered every other day for 28 days; type: functional, organism-based

## C[C@]1(OC(=O)/C=C/c2ccccc2)C[C@@H](O)[C@]2(O)C=CO[C@@H](O[C@@H]3O[C@H](CO)[C@@H](O)[C@H](O)[C@H]3O)[C@@H]21 [HARPAGOSIDE]
[1]
  Activity: Non-toxic
[2]
  inhibition: Active
[3]
  inhibition: Active
[4]
  inhibition: inactive
[5]
  inhibition: Dose-dependent effect
[6]
  inhibition: Active
[7]
  inhibition: Active
[8]
  inhibition: Active
[9]
  inhibition: inactive
[10]
  inhibition: Active
[11]
  inhibition: Active
[12]
  inhibition: Active
[13]
  inhibition: Active
[14]
  inhibition: inactive
[15]
  inhibition: Active
[16]
  inhibition: Active
[17]
  inhibition: Active
[18]
  inhibition: Active
[19]
  inhibition: Active
[20]
  inhibition: inactive
[21]
  inhibition: Dose-dependent effect
[22]
  inhibition: inactive
[23]
  inhibition: Active
[24]
  inhibition: Active
[25]
  inhibition: inactive
[26]
  inhibition: inactive
[27]
  inhibition: inactive
[28]
  inhibition: Active
[29]
  inhibition: Active
[30]
  inhibition: Active
[31]
  inhibition: Active
[32]
  inhibition: Active
[33]
  inhibition: Active
[34]
  inhibition: Active
[35]
  inhibition: Dose-dependent effect
[36]
  inhibition: Active
[37]
  inhibition: Active
[38]
  inhibition: inactive
